Reference: US20240051937A1, “ISOINDOLINONE AMIDE COMPOUNDS USEFUL TO TREAT DISEASES ASSOCIATED WITH GSPT1” (Monte Rosa Therapeutics, Inc., priority 2021, published 2024)
pIC50: −log10 of the molar value. Read-outs that look alike come from different tables or passages of the source.

Experiments:
[1] = molecular target: T1, Full length wild-type cereblon CRBN (Homo sapiens, UniProt Q96SW2); experiment: Fluorescence polarization (FP) assay indicating cereblon binding
T1 construct: Full length wild-type cereblon CRBN (80.0 nM, 10 μL) was incubated in assay buffer
Source text: Protocol for Fluorescent Polarization Assay
Compound activity was monitored in a fluorescence polarization (FP) homogeneous assay using 1-[5-({2-[2-(2-{[2-(2,6-dioxopiperidin-3-yl)-1,3-dioxo-2,3-dihydro-1H-isoindol-4-yl]oxy}acetamido)ethoxy]ethyl}carbamoyl)pentyl]-3,3-dimethyl-2-[(1E,3E)-5-[(2E)-1,3,3-trimethyl-5-sulfo-2,3-dihydro-1H-indol-2-ylidene]penta-1,3-dien-1-yl]-3H-indol-1-ium-5-sulfonate as a fluorescent probe. Unless otherwise stated, all reagents were purchased from Sigma Aldrich. Enzymatic reactions were conducted in Perkin-Elmer Black 384 well ProxiPlate Plus (catalogue no. 6008269) in 10 μL total volume. Full length wild-type cereblon CRBN (80.0 nM, 10 μL) was incubated in assay buffer containing 20 mM HEPES (pH 8.0), […], 0.5 mM TCEP and 0.05% Tween 20 in the presence or absence of compound (300 nL). Inhibitors were stored as 10 mM DMSO stocks in an inert environment (low humidity, dark, low oxygen, room temperature) using the Storage Pod System. Compounds and DMSO were dispensed using the Echo E5XX (Labcyte Inc. USA) to give concentrations from 300 to 0.937 or 3000 to 9.3 nM in a 12 data point curve. […] Following incubation at room temperature for 30 min, the assay was initiated by dispensing the probe to a final concentration of 5 nM (2.5 nL of a 20 μM stock) using the Echo E5XX. FP was measured after a period of 12 hours using a Pherastar plate reader (BMG Labtech, Germany) exciting at 590 nm and measuring the amount of parallel and perpendicular light at 675 nm. The FP signal was subsequently normalized to the no-compound control (i.e., DMSO). Analysis and IC50 values were derived using Dotmatics (Dotmatics UK) software.

GSPT1 = GSPT1 (Homo sapiens, UniProt P15170+Q96SW2); experiment: Immunofluorescence assay for GSPT1 degradation in CAL-Si cells; assay type: cell-based; parameters: CAL-Si cells were purchased from DSMZ (cat. Number ACC302); host or cells: CAL-Si (CAL-51) cells; details: 6 hours treatment
Protocol: The representative compounds were tested in an immunofluorescence assay for their activity to bind to degrade GSPT1. CAL-Si cells were purchased from DSMZ (cat. Number ACC302), sub-cultured in 90% Dulbecco's MEM (4.5 g/L glucose, Gibco 11965)+10% […] inactivated FBS (BioConcept, 2-01F136I) and incubated at 37° C., 5% CO2. For the assay, imaging microtiterplate Cell Carrier 96 Ultra (Perkin Elmer 6055302) were pre-coated with Fibronectin (Sigma F085, 30 μl at 0.2 μg/ml) in PBS (100 μl, Gibco 14190) for 45 min at room temperature, rinsed with PBS and CAL-Si cells (30K cells/well) were plated and let to adhere overnight. Cells were treated with compounds typically using a serial dilution ranging from 30 μM to 0.1 nM for 6 hours. Compounds were stored at 10 mM DMSO stocks. Vehicle (DMSO), positive (CC-885, 10 μM) and rescue controls (positive control plus 0.2 μM bortezomib) were also included at this stage. Cells were subsequently rinsed with PBS and fixed in 10% Formalin solution (50 μl, Sigma HT5011)) for 20 mins at room temperature. Following three consecutive PBS washes (100 μl), cells were permeabilized in 0.1% Triton X-100 in PBS (Sigma 93443, 50 μl) for 15 mins at room temperature. Following three further PBS washes, […] blocking buffer (1% BSA, Sigma A4503, in PBS) was added for 45 min for signal-to-noise reduction.
Primary antibody (human GSPT1, Sigma HPA052488) was diluted in blocking buffer (dil.1/300, 35 μl/well) and incubated with the cells overnight at 4° C. After three PBS washes, Alexa-fluor 488 coupled secondary antibodies (Invitrogen, A32731, dil.1/1000), Alexa-fluor 647-Phalloidin (Invitrogen, A22287, dil.1/200) and DAPI (Thermo, #62248, dil.1/1000) were diluted in blocking buffer and incubated with the samples for 2 hours at room temperature. After three final PBS washes, samples were conserved in […] PBS in the dark, until measurement. Image acquisition was performed on the Operetta High-Content Imager (Perkin-Elmer). Fluorescence intensity of Alexa-Fluor 488 (GSPT1), Alexa-Fluor 647 (Actin) and DAPI (Nucleus) were measured. For the determination of GSPT1 DC50 values, a custom algorithm implemented in the PerkinElmer image analysis software Harmony-Acapella® was developed. After user-defined setting of adjustment parameters, the analysis was run identically without human intervention for all image fields. DAPI staining of the nuclei was used to determine the location of cells using standard nuclei detection modules. Segmentation artifacts were removed by threshold-based filters for area, roundness and intensity. The outline of the cells was determined analogously from the sum of the normalized, smoothed DAPI and Actin channel, starting from each nucleus.
The Alexa-Fluor 488 (GSPT1) signal intensity in each cell was finally measured, in order to obtain a Mean intensity per cell. GSPT1 degradation (DC50) was calculated after normalization to controls and data import in CDD vault Database, using non-linear regression.

[2] = cereblon binding, CRBN 80.0 nM, probe 5 nM, FP read after 12 hours, read-out: rFP IC50
[3] = read-out: Code: activity for GSPT1 degradation (DC50)
[4] = fluorescence polarization assay, read-out: IC50 value (cereblon binding)
[5] = GSPT1 degradation, read-out: DC50

Sequence of GSPT1 (P15170 whole entry): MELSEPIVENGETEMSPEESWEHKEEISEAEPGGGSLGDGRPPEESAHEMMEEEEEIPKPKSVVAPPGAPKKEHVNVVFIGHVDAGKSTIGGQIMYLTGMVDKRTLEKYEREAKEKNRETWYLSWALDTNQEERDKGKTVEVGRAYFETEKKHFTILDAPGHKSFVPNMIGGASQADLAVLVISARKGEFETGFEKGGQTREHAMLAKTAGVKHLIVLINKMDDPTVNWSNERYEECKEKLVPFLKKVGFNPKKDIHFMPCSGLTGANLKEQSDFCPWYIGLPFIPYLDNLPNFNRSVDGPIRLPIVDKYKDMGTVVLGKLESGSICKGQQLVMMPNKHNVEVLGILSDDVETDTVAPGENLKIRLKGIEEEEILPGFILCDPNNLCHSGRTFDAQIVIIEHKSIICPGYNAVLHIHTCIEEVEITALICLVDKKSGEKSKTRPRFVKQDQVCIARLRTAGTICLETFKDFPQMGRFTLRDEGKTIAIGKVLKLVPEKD
Sequence of GSPT1 (Q96SW2 whole entry): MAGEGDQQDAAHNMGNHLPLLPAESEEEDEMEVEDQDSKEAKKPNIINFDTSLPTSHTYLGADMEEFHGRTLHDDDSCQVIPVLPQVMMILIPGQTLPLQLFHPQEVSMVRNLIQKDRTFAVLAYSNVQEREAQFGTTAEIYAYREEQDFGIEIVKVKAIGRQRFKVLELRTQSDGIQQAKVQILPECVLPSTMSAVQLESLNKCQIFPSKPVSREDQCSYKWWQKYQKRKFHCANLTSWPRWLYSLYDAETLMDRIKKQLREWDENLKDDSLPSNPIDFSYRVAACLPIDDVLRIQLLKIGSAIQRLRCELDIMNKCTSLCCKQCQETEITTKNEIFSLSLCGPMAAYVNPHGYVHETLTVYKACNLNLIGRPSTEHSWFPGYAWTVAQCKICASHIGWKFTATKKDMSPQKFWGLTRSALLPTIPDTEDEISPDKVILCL
Sequence of GSPT1 (Q16531 whole entry partner): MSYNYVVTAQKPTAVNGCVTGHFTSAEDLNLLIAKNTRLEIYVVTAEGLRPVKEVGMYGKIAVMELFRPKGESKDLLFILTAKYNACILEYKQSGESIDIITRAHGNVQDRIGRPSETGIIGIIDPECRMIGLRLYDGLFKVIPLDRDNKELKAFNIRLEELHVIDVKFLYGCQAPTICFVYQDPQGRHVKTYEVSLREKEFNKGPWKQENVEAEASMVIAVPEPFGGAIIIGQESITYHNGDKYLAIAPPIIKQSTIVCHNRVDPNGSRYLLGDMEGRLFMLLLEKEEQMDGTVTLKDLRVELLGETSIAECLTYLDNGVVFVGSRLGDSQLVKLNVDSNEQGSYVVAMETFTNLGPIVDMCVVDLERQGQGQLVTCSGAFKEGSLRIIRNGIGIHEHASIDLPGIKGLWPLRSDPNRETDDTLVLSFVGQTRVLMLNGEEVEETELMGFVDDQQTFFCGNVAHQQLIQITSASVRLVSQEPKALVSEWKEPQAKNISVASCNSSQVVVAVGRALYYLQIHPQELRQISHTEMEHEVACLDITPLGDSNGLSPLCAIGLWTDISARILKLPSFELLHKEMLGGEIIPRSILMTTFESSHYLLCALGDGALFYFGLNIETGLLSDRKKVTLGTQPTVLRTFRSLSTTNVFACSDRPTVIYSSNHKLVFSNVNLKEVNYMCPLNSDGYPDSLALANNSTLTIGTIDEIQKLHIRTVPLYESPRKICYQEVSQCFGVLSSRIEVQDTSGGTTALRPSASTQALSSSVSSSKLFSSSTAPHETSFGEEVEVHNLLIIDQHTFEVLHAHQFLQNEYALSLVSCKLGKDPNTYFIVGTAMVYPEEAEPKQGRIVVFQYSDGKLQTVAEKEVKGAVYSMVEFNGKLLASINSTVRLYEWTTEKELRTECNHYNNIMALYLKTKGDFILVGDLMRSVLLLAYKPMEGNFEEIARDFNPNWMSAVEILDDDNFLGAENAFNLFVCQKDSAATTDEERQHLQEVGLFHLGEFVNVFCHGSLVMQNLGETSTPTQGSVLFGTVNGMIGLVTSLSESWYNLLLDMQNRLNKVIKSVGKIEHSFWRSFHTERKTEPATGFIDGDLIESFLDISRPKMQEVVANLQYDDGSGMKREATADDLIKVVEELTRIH
T1 sequence (Q96SW2 whole entry): as the sequence (Q96SW2 whole entry) above

pIC50 [1, 2]	DC50 (GSPT1; [3]) [µM]	pIC50 [1, 4]	DC50 (GSPT1; [5]) [µM]	Structure (SMILES)
< 5.77	> 0.3	–	–	CC(C)CCNC(=O)CCc1ccc2c(c1)C(=O)N(C1CCC(=O)NC1=O)C2 (stereo not shown) [Compound 6]
5.96 to 6.30	≤ 0.03	> 5.96	0.027	O=C1CCC(N2Cc3ccc(CCC(=O)Nc4ccc(-c5ccccn5)cc4)cc3C2=O)C(=O)N1 (stereo not shown) [Compound 44]
5.96 to 6.30	≤ 0.03	> 5.96	0.022	Cc1c(CN2CCOCC2)cc(NC(=O)CCc2ccc3c(c2)C(=O)N(C2CCC(=O)NC2=O)C3)cc1OC(F)(F)F (stereo not shown) [Compound 53]
< 5.77	≤ 0.03	–	0.017	O=C1CCC(N2Cc3ccc(CCC(=O)Nc4cc(Cl)cc(OC(F)(F)F)c4)cc3C2=O)C(=O)N1 (stereo not shown) [Compound 11]
5.96 to 6.30	0.03 to 0.3	> 5.96	–	O=C1CCC(N2Cc3ccc(CCC(=O)Nc4cc(F)cc(OC(F)F)c4)cc3C2=O)C(=O)N1 (stereo not shown) [Compound 28]
5.77 to 5.96	> 0.3	–	–	CC1(c2ccc(NC(=O)CCc3ccc4c(c3)C(=O)N(C3CCC(=O)NC3=O)C4)cc2)COC1 (stereo not shown) [Compound 55]
5.96 to 6.30	> 0.3	> 5.96	–	O=C1CCC(N2Cc3ccc(CCC(=O)Nc4cc(OC(F)(F)F)ccn4)cc3C2=O)C(=O)N1 (stereo not shown) [Compound 59]
5.96 to 6.30	> 0.3	> 5.96	–	O=C(CCc1ccc2c(c1)C(=O)N(C1CCC(=O)NC1=O)C2)NCC1CC1 (stereo not shown) [Compound 9]
5.96 to 6.30	0.03 to 0.3	> 5.96	–	O=C1CCC(N2Cc3ccc(CCC(=O)Nc4ccc(F)c(OC(F)F)c4)cc3C2=O)C(=O)N1 (stereo not shown) [Compound 30]
5.96 to 6.30	> 0.3	> 5.96	–	CN1CCC(COc2cc(Cl)cc(NC(=O)CCc3ccc4c(c3)C(=O)N(C3CCC(=O)NC3=O)C4)c2)C1 (stereo not shown) [Compound 37]
5.77 to 5.96	> 0.3	–	–	O=C1CCC(N2Cc3ccc(CCC(=O)Nc4cnc5c(c4)COCC5)cc3C2=O)C(=O)N1 (stereo not shown) [Compound 48]
5.77 to 5.96	0.03 to 0.3	–	–	Cc1c(Cl)cc(NC(=O)CCc2ccc3c(c2)C(=O)N(C2CCC(=O)NC2=O)C3)cc1CN1CC2CCC(C1)O2 (stereo not shown) [Compound 24]
5.96 to 6.30	> 0.3	> 5.96	–	CCc1cc(NC(=O)CCc2ccc3c(c2)C(=O)N(C2CCC(=O)NC2=O)C3)ccn1 (stereo not shown) [Compound 54]
5.96 to 6.30	0.03 to 0.3	> 5.96	–	Cc1c(Cl)cc(NC(=O)CCc2ccc3c(c2)C(=O)N(C2CCC(=O)NC2=O)C3)cc1CN1CC2CC1CO2 (stereo not shown) [Compound 22]
5.96 to 6.30	0.03 to 0.3	> 5.96	–	CN1CCC(Oc2cc(Cl)cc(NC(=O)CCc3ccc4c(c3)C(=O)N(C3CCC(=O)NC3=O)C4)c2)C1 (stereo not shown) [Compound 31]
5.96 to 6.30	> 0.3	> 5.96	–	O=C1CCC(N2Cc3ccc(CCC(=O)Nc4cc(Cl)cc(OCC5CCNC5)c4)cc3C2=O)C(=O)N1 (stereo not shown) [Compound 25]
5.77 to 5.96	0.03 to 0.3	–	–	CC1(c2ccc(NC(=O)CCc3ccc4c(c3)C(=O)N(C3CCC(=O)NC3=O)C4)cc2)CC1 (stereo not shown) [Compound 58]

pIC50 [1, 2]	DC50 (GSPT1; [3]) [µM]	pIC50 [1, 4]	DC50 (GSPT1; [5]) [µM]	Structure (SMILES)
< 5.77	> 0.3	–	–	O=C1CCC(N2Cc3ccc(CCC(=O)N4CCCCC4)cc3C2=O)C(=O)N1 (stereo not shown) [Compound 13]
5.96 to 6.30	0.03 to 0.3	> 5.96	–	COc1cc(NC(=O)CCc2ccc3c(c2)C(=O)N(C2CCC(=O)NC2=O)C3)ccc1C (stereo not shown) [Compound 33]
≥ 6.30	> 0.3	> 5.96	–	Cc1c(Cl)cc(NC(=O)CCc2ccc3c(c2)C(=O)N(C2CCC(=O)NC2=O)C3)cc1OCC1CCNC1 (stereo not shown) [Compound 51]
5.96 to 6.30	> 0.3	> 5.96	–	O=C1CCC(N2Cc3ccc(CCC(=O)NC4CCCCC4)cc3C2=O)C(=O)N1 (stereo not shown) [Compound 4]
5.77 to 5.96	0.03 to 0.3	–	–	Cc1ncc(NC(=O)CCc2ccc3c(c2)C(=O)N(C2CCC(=O)NC2=O)C3)cc1OC(F)(F)F (stereo not shown) [Compound 64]
≥ 6.30	> 0.3	> 5.96	–	CCc1cc(NC(=O)CCc2ccc3c(c2)C(=O)N(C2CCC(=O)NC2=O)C3)cc(C)n1 (stereo not shown) [Compound 57]
5.96 to 6.30	0.03 to 0.3	> 5.96	–	CCc1cc(NC(=O)CCc2ccc3c(c2)C(=O)N(C2CCC(=O)NC2=O)C3)cnc1C (stereo not shown) [Compound 46]
5.77 to 5.96	0.03 to 0.3	–	–	O=C1CCC(N2Cc3ccc(CCC(=O)Nc4cccc(OC(F)(F)F)c4)cc3C2=O)C(=O)N1 (stereo not shown) [Compound 5]
≥ 6.30	> 0.3	–	–	Cc1c(Cl)cc(NC(=O)CNc2ccc3c(c2)C(=O)N(C2CCC(=O)NC2=O)C3)cc1CN1CCOCC1 (stereo not shown) [Compound 67, N-(3-chloro-4-methyl-5-(morpholinomethyl)phenyl)-2-((2-(2,6-dioxopiperidin-3-yl)-3-oxoisoindolin-5-yl)amino)acetamide]
5.96 to 6.30	> 0.3	> 5.96	–	O=C1CCC(N2Cc3ccc(CCC(=O)NC4CCN(c5ccccn5)CC4)cc3C2=O)C(=O)N1 (stereo not shown) [Compound 12]
< 5.77	0.03 to 0.3	–	–	O=C1CCC(N2Cc3ccc(CCC(=O)Nc4cc(CN5CCOCC5)cc(OC(F)F)c4)cc3C2=O)C(=O)N1 (stereo not shown) [Compound 66]
5.77 to 5.96	≤ 0.03	–	0.026	CCc1cc(NC(=O)CCc2ccc3c(c2)C(=O)N(C2CCC(=O)NC2=O)C3)cc(Cl)c1C (stereo not shown) [Compound 43]
≥ 6.30	0.03 to 0.3	> 5.96	–	Cc1c(Cl)cc(NC(=O)CCc2ccc3c(c2)C(=O)N(C2CCC(=O)NC2=O)C3)cc1OC1CCN(C)C1 (stereo not shown) [Compound 50]
< 5.77	0.03 to 0.3	–	–	O=C1CCC(N2Cc3ccc(CCC(=O)Nc4cc(F)cc(OC(F)(F)F)c4)cc3C2=O)C(=O)N1 (stereo not shown) [Compound 56]
< 5.77	> 0.3	–	–	Cc1cc(NC(=O)CCc2ccc3c(c2)C(=O)N(C2CCC(=O)NC2=O)C3)cc(C)n1 (stereo not shown) [Compound 52]
< 5.77	> 0.3	–	–	O=C1CCC(N2Cc3ccc(CCC(=O)N4CCN(c5ccccc5)CC4)cc3C2=O)C(=O)N1 (stereo not shown) [Compound 27]
